This note sets out measurements from PMC5869189 (Frontiers in Immunology, 2018).

This experiment concerns PBMC from healthy, seropositive donors. It is filed as cell-based, human.
KLTMLAHDAMMSAAAQDRSI [BPSS1531_P19]: the “% Responders” value was determined as 88.6% and the “Median SFC/10^6 PBMCs (IFN-g)” value is recorded as 226.

Turning to ASPTWRAYRLNANLGGIAPP [BPSS1599_P39], the “% Responders” value is reported as 87.5% and the “Median SFC/10^6 PBMCs (IFN-g)” value is given as 143.

LLLRQAIAEYRMRLANLDAF [BPSS0530_P25]: the “% Responders” value was 81.4% and the “Median SFC/10^6 PBMCs (IFN-g)” value was determined as 244.

Take GVALVAAAFVGASAVKAVAS [BPSS1532_P45]: the “% Responders” value is given as 83.9% and the “Median SFC/10^6 PBMCs (IFN-g)” value was found to be 142.

As to AGTVMNVGNQVSQAAGGIVV [BPSS1532_P54], the “% Responders” value stood at 80.6% and the “Median SFC/10^6 PBMCs (IFN-g)” value was 189.

For the sequence VPLTAPTANDTPLADDSVVR [BPSS1599_P33], the “% Responders” value was 83.3% and the “Median SFC/10^6 PBMCs (IFN-g)” value is given as 147.

Turning to QPAPNWLGAFALPDGRWAYF [BPSS1599_P10], the “% Responders” value was found to be 95.8% and the “Median SFC/10^6 PBMCs (IFN-g)” value is reported as 189.

With RMRLANLDAFDPLPPAMLYH [BPSS0530_P26], the “% Responders” value is 88.4% and the “Median SFC/10^6 PBMCs (IFN-g)” value is 240.

Regarding LAGVQVVQSNGNYSVFLSGG [BPSL0280_P22], the “% Responders” value came to 93.1% and the “Median SFC/10^6 PBMCs (IFN-g)” value was 464.

For DLDQDGLGLGRLGLRHARGV [BPSS0530_P6], the “% Responders” value is recorded as 90.7% and the “Median SFC/10^6 PBMCs (IFN-g)” value amounted to 288.

With ELERQGFQNFQPKRLDDLLP [BPSS1599_P16], the “% Responders” value was 83.3% and the “Median SFC/10^6 PBMCs (IFN-g)” value was 142.

In the case of NNHEENGQSAFETVTEASFP [BPSL2096_P3], the “% Responders” value came to 91.2% and the “Median SFC/10^6 PBMCs (IFN-g)” value came to 308.

Regarding GALGGLLAFRSQTLDPAQAQ [BPSL0280_P29], the “% Responders” value is 93.1% and the “Median SFC/10^6 PBMCs (IFN-g)” value is recorded as 463.

Take VGTQEVQKTTVPAQ [BPSL2522_P22]: the “% Responders” value is reported as 97.1% and the “Median SFC/10^6 PBMCs (IFN-g)” value was found to be 270.

As for RRGGRPRTERWWALRPVERR [BPSS1599_P18], the “% Responders” value came out at 97.9% and the “Median SFC/10^6 PBMCs (IFN-g)” value is recorded as 172.

For the sequence GAAQMTAAIAGGALQATTSL [BPSS1531_P21], the “% Responders” value is reported as 97.1% and the “Median SFC/10^6 PBMCs (IFN-g)” value was 225.

Take TEQPDGSLKLNVPSSVTFAT [BPSL0999_P10]: the “% Responders” value was 93.6% and the “Median SFC/10^6 PBMCs (IFN-g)” value is reported as 382.

As for RDGFAPGHLSLGAMVSRAIA [BPSS1599_P7], the “% Responders” value turned out to be 95.8% and the “Median SFC/10^6 PBMCs (IFN-g)” value was 132.

Turning to MLRQALARVIETPVLPLRFE [BPSS0530_P32], the “% Responders” value is reported as 95.3% and the “Median SFC/10^6 PBMCs (IFN-g)” value was determined as 316.

For TQLLARLQWLDAAAKLERLL [BPSS1599_P35], the “% Responders” value worked out at 93.8% and the “Median SFC/10^6 PBMCs (IFN-g)” value is on record as 145.

Consider NSYTSQIAQLNEQIASASSQ [BPSL0280_P18], for which the “% Responders” value turned out to be 93.1% and the “Median SFC/10^6 PBMCs (IFN-g)” value was 523.

For YLVSKGVPANKVYTEGKGKR [BPSL2522_P17], the “% Responders” value amounted to 82.9% and the “Median SFC/10^6 PBMCs (IFN-g)” value came out at 312.

As to ECTPGTAHYAWARNGSNVRY [BPSS1599_P29], the “% Responders” value was found to be 97.9% and the “Median SFC/10^6 PBMCs (IFN-g)” value was 162.

Take EAEEREAALERVRAELAARQ [BPSS1599_P23]: the “% Responders” value is reported as 91.7% and the “Median SFC/10^6 PBMCs (IFN-g)” value was 147.

Regarding AIFSEAKDRFCMDPATRAGN [BPSS1525_P13], the “% Responders” value is listed as 92.3% and the “Median SFC/10^6 PBMCs (IFN-g)” value amounted to 200.

Consider AWRREHKDLDKLNHYSFGDV [BPSL2096_P10], for which the “% Responders” value is on record as 88.2% and the “Median SFC/10^6 PBMCs (IFN-g)” value came out at 351.

DAAAKLERLLPEQGPRAPLA [BPSS1599_P36]: the “% Responders” value was 89.6% and the “Median SFC/10^6 PBMCs (IFN-g)” value is recorded as 143.

Consider AVNDNWVNGTGEWVWMNGTN [BPSL2522_P4], for which the “% Responders” value was determined as 91.4% and the “Median SFC/10^6 PBMCs (IFN-g)” value is 368.

Regarding MSSLPVGPVAWSDGMLIETQ [BPSS0530_P1], the “% Responders” value is recorded as 93.0% and the “Median SFC/10^6 PBMCs (IFN-g)” value stood at 258.

As for TKLGAVEQIQKLVDLQLPGA [BPSS0530_P38], the “% Responders” value stood at 90.7% and the “Median SFC/10^6 PBMCs (IFN-g)” value turned out to be 305.

Take RLNALPNPPRQIPYYAQSTY [BPSS0530_P40]: the “% Responders” value came to 81.4% and the “Median SFC/10^6 PBMCs (IFN-g)” value is 219.

As for NVPSSVTFATDQYAITPAFT [BPSL0999_P11], the “% Responders” value is on record as 95.7% and the “Median SFC/10^6 PBMCs (IFN-g)” value turned out to be 399.

As for PLLNDLATTLNQNPQITASV [BPSL0999_P13], the “% Responders” value is given as 91.5% and the “Median SFC/10^6 PBMCs (IFN-g)” value came to 357.

As to MSAQVIQIGRQRFVGGLFWQ [BPSS1599_P1], the “% Responders” value stood at 81.3% and the “Median SFC/10^6 PBMCs (IFN-g)” value is recorded as 189.

As for LASRYRAVSTEVPDLAVGLD [BPSS0530_P13], the “% Responders” value is 97.7% and the “Median SFC/10^6 PBMCs (IFN-g)” value is recorded as 267.

Consider RDLAVSKLSQLAGVQVVQSN [BPSL0280_P21], for which the “% Responders” value came to 93.1% and the “Median SFC/10^6 PBMCs (IFN-g)” value is listed as 493.

In the case of FDLMVLRIDRGVAAAGYANT [BPSS1599_P5], the “% Responders” value turned out to be 89.6% and the “Median SFC/10^6 PBMCs (IFN-g)” value was found to be 129.

Take SQVANDNAVAAQVAGNLRT [BPSS1531_P41]: the “% Responders” value came to 80.0% and the “Median SFC/10^6 PBMCs (IFN-g)” value was found to be 197.

As to GRQVYEATLCAIFSEAKDRF [BPSS1525_P12], the “% Responders” value amounted to 84.6% and the “Median SFC/10^6 PBMCs (IFN-g)” value stood at 201.

As to VLPGVDEELADRELGYDHDD [BPSS0530_P29], the “% Responders” value is given as 93.0% and the “Median SFC/10^6 PBMCs (IFN-g)” value is 234.

On to RVRAELAARQARSGPVAPPW [BPSS1599_P24], for which the “% Responders” value is listed as 87.5% and the “Median SFC/10^6 PBMCs (IFN-g)” value amounted to 119.

Take TPLADDSVVRTQLLARLQWL [BPSS1599_P34]: the “% Responders” value was found to be 97.9% and the “Median SFC/10^6 PBMCs (IFN-g)” value turned out to be 147.

Consider APDRRVEVEVVGTQEVQKTT [BPSL2522_P21], for which the “% Responders” value worked out at 100.0% and the “Median SFC/10^6 PBMCs (IFN-g)” value is given as 273.

Consider AWAERFDRYLDDADALVASA [BPSL2504_P8], for which the “% Responders” value stood at 91.4% and the “Median SFC/10^6 PBMCs (IFN-g)” value came to 317.

Consider AGAILGAVVTGVALVAAAFV [BPSS1532_P44], for which the “% Responders” value worked out at 100.0% and the “Median SFC/10^6 PBMCs (IFN-g)” value amounted to 156.

Consider SQKITYQADTLFDFDKAVLK [BPSL2522_P10], for which the “% Responders” value amounted to 91.4% and the “Median SFC/10^6 PBMCs (IFN-g)” value was 297.

Turning to APGGWRLERYECTPGTAHYA [BPSS1599_P28], the “% Responders” value is 87.5% and the “Median SFC/10^6 PBMCs (IFN-g)” value is listed as 163.

Regarding DNATEAGRAQNRRVEIYLRA [BPSL0999_P20], the “% Responders” value came to 93.6% and the “Median SFC/10^6 PBMCs (IFN-g)” value is reported as 353.

Take GPEMAFGDVELASRYRAVST [BPSS0530_P12]: the “% Responders” value worked out at 97.7% and the “Median SFC/10^6 PBMCs (IFN-g)” value was found to be 308.

For HQASLRLGQTSNHGWGFTLL [BPSS0530_P4], the “% Responders” value amounted to 83.7% and the “Median SFC/10^6 PBMCs (IFN-g)” value worked out at 239.

On to ETGQLVTRLCWKSQLRSDEV [BPSS0530_P16], for which the “% Responders” value was determined as 81.4% and the “Median SFC/10^6 PBMCs (IFN-g)” value came out at 266.

Consider WARNGSNVRYLLVVEPGATL [BPSS1599_P30], for which the “% Responders” value worked out at 91.7% and the “Median SFC/10^6 PBMCs (IFN-g)” value is given as 155.

As for APGTPRRLTIETGQLVTRLC [BPSS0530_P15], the “% Responders” value was found to be 93.0% and the “Median SFC/10^6 PBMCs (IFN-g)” value came out at 255.

Consider NLAQQAAALPASPTWRAYRL [BPSS1599_P38], for which the “% Responders” value is 89.6% and the “Median SFC/10^6 PBMCs (IFN-g)” value was 125.

With KQTLAGSAMALRIVGDFPDL [BPSS0530_P43], the “% Responders” value came to 100.0% and the “Median SFC/10^6 PBMCs (IFN-g)” value is recorded as 299.

For EAVELAKKLKFDLMVLRIDR [BPSS1599_P4], the “% Responders” value came to 85.4% and the “Median SFC/10^6 PBMCs (IFN-g)” value came to 137.

As to DRGDQVHICIVDKQWNLKKL [BPSS0530_P34], the “% Responders” value was found to be 86.0% and the “Median SFC/10^6 PBMCs (IFN-g)” value was 299.

For the sequence ALPIARVAGRNASRTVSLDP [BPSS0530_P18], the “% Responders” value was 100.0% and the “Median SFC/10^6 PBMCs (IFN-g)” value was found to be 249.

CLALQAARTGGPEMAFGDVE [BPSS0530_P11]: the “% Responders” value was 97.7% and the “Median SFC/10^6 PBMCs (IFN-g)” value is reported as 256.

On to VGYTDSTGSAAHNQTLSQNR [BPSL0999_P15], for which the “% Responders” value is on record as 97.9% and the “Median SFC/10^6 PBMCs (IFN-g)” value is 367.

On to KVYTEGKGKRNPVTGNTCKQ [BPSL2522_P18], for which the “% Responders” value was found to be 94.3% and the “Median SFC/10^6 PBMCs (IFN-g)” value was 288.

Turning to WKSQLRSDEVALPIARVAGR [BPSS0530_P17], the “% Responders” value is on record as 97.7% and the “Median SFC/10^6 PBMCs (IFN-g)” value is 274.

For the sequence HAEQALELRGINKPVLSNDE [BPSS1531_P26], the “% Responders” value came to 85.7% and the “Median SFC/10^6 PBMCs (IFN-g)” value was determined as 219.

As for FTVVAAKPGFNNHEENGQSA [BPSL2096_P2], the “% Responders” value stood at 88.2% and the “Median SFC/10^6 PBMCs (IFN-g)” value is reported as 323.

On to WWALRPVERRLSPRAALIAA [BPSS1599_P19], for which the “% Responders” value stood at 95.8% and the “Median SFC/10^6 PBMCs (IFN-g)” value stood at 169.

As to FAYWHHRAKVEAEEREAALE [BPSS1599_P22], the “% Responders” value is reported as 95.8% and the “Median SFC/10^6 PBMCs (IFN-g)” value is reported as 169.

ALPDGRWAYFAVRDHAFMPN [BPSS1599_P11]: the “% Responders” value is listed as 95.8% and the “Median SFC/10^6 PBMCs (IFN-g)” value came to 148.

Take EKLRQLLPQQTKLGAVEQIQ [BPSS0530_P37]: the “% Responders” value was 83.7% and the “Median SFC/10^6 PBMCs (IFN-g)” value turned out to be 222.

On to LFDFDKAVLKPAGKQKLDEL [BPSL2522_P11], for which the “% Responders” value is 85.7% and the “Median SFC/10^6 PBMCs (IFN-g)” value stood at 408.
